In patent US8013190B2, “Chemical composition with borane clusters for use as an HIV protease inhibitor” (Vysoka Skola Chemicko-Technologicka V Praze, priority 2004, dated 2011):
Like-named read-outs stand apart in the source and are kept apart here.

Assays:
[1] = tested on: HIV proviral clone NL 4-3; assay: HIV infectivity inhibition in tissue cultures transfected with proviral clone NL4-3, titration on TZM reporter cells; assay type: cell-based; conditions: for effect on virus infectivity: 293 T cells transfected by NL 4-3, FIG. 5
Procedure: The antiviral activity of compounds GB-8, GB-12 and GB-16 in tissue cultures was analyzed using two variations of a published procedure (Benyoucef S, Hober D, Shen L, Ajana F, Gerard Y, Bocket-Mouton L, Mouton Y, Wattre P. (1996) Microbiol Immunol. 40(5), 381-8). The production of infectious HIV particles and influences of HIV protease inhibitors on the infectivity was directly determined by these assays.
For testing of compounds GB-8, GB-12 and GB-16, HeLa cells were transfected by DNA encoding pNL-43 strain of HIV virus that contained beta-galactosidase gene in the site of viral nef gene. All transfections were performed in duplicate. Medium was replaced the next day following the transfection, and protease inhibitors dissolved in DMSO were added into fresh medium. The control was incubated in the same DMSO concentration as tested cells. The supernatant of transfected cells was used in next round for reporter cells infection. Infectivity was quantified by enzyme beta-galactosidase activity in infected cells and the infected cells were visualised using chromogenic beta-galactosidase substrate (X-gal). Viral proteins of newly created virions were separated by SDS PAGE and immunochemically visualised using antibodies against HIV capsid protein (Western blot).
In paralel experiments, HIV was produced in 293 T cells transfected by proviral clone NL 4-3. All transfections were performed in duplicate. Medium was replaced the next day following the transfection, and protease inhibitors dissolved in DMSO were added into fresh medium. The control was incubated in the same DMSO concentration as tested cells. Viral infectivity was quantified by titration of the cell supernatant by TZM cell (reporter cells bearing in their genome LTR promotor from HIV bound with beta-galactosidase gene, activated by Tat protein produced by the virus). After two days following the infection the reporter cells were lysed and fixed by methanol/acetone mixture. Beta-galactosidase activity of infected cells was visualised by blue color after chromogenic substrate X-gal addition.

[2] = biological target: T1, wild type HIV-1 protease (Human immunodeficiency virus type 1 group M subtype B, UniProt P12497); assay: Inhibition of pure recombinant HIV protease with chromogenic peptide substrate (spectrophotometric); assay type: biochemical
T1 construct: using pure recombinant HIV protease and chromogenic peptide substrate
Procedure: (§1) Initially, known and novel compounds were tested as to their ability to inhibit specific activitity of HIV protease in vitro using pure recombinant HIV protease and chromogenic peptide substrate derived from amino acid sequence of one of the sites of cleavage of viral polyprotein. Testing was performed using the method published by one of the co-inventors of this invention (Konvalinka, J., Litera, J., Weber, J., Vondrásek, J., Hradilek, M., Soucek, M., Pichová, I., Majer, P., Strop, P., Sedlácek, J., Heuser, A. -M., Kottler, H. and Kraeusslich, H. -G. (1997). Eur. J. Biochem. 250, 559-566). […] The reaction course is observed spectrophotometrically as decrease of the absorbance at 305 nm.
The mechanism of action of tested compounds (inhibition type) were determined from dependence of initial reaction rate on substrate concentration at different inhibitor concentrations (Lineweaver-Burke plot). Dependence of initial enzyme reaction rate on substrate concentration is measured at various inhibitor concentrations (here 0 and 15 μM). The measurements were performed at pH 4.7, 37° C. in 0.1 M acetate buffer containing 0.3M NaCl. y axis: reciprocal value of initial enzyme reaction rate, x axis: reciprocal value of substrate concentration (mol/dm^3).

[3] = tested on: mutant HIV-1 PR 3/1; assay: Inhibition of recombinant protease, chromogenic substrate; assay type: biochemical
Procedure: as §1, with “nm. IC50 values of tested compounds were calculated from experimental data, as taught in (Majer, P., Urban, J., Gregorová, E., Konvalinka, J., Novek, P., Stehlíková, J., Andreánsky, M., Sedlácek, J. and Strop, P. (1993) Arch.Biochem.Biophys. 304, 1-8) and are shown in Table 1.” for “nm.”
(§2) Inhibition testing of GB-16 was performed also for wild type HIV-2 protease, mutant HIV-1 PR 3/1 and cathepsin D. Results are shown in Table 2.

[4] = biological target: T2, wild-type HIV-2 PR (Human immunodeficiency virus type 2 subtype A, UniProt P04584); assay: as above; assay type: biochemical
T2 construct: performed also for wild type HIV-2 protease, mutant HIV-1 PR 3/1 and cathepsin D
T2 sequence (P04584 514-612 limits assumed): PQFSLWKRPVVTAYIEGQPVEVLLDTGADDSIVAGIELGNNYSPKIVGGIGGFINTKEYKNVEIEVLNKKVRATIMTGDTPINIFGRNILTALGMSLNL
Procedure: as §1, with “nm. IC50 values of tested compounds were calculated from experimental data, as taught in (Majer, P., Urban, J., Gregorová, E., Konvalinka, J., Novek, P., Stehlíková, J., Andreánsky, M., Sedlácek, J. and Strop, P. (1993) Arch.Biochem.Biophys. 304, 1-8) and are shown in Table 1.” for “nm.”
as §2

[5] = biological target: cathepsin D (Homo sapiens, UniProt P07339); assay: as above; assay type: biochemical
Chain of cathepsin D (P07339 65-412, species assumed): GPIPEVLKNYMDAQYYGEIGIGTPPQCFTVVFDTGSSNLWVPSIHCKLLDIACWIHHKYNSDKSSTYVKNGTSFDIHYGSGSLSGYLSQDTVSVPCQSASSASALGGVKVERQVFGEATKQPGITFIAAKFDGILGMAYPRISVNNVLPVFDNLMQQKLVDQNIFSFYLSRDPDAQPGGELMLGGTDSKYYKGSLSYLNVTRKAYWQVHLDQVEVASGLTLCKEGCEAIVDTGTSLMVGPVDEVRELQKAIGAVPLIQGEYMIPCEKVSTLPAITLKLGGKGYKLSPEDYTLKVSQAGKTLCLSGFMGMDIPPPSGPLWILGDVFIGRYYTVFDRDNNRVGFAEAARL
Procedure: as §1, with “nm. IC50 values of tested compounds were calculated from experimental data, as taught in (Majer, P., Urban, J., Gregorová, E., Konvalinka, J., Novek, P., Stehlíková, J., Andreánsky, M., Sedlácek, J. and Strop, P. (1993) Arch.Biochem.Biophys. 304, 1-8) and are shown in Table 1.” for “nm.”
as §2

[6] = biological target: T3, HIV PR K4 (L10I, L24I, L33F, M46L, I54V, L63P, A71V, V82A, I84V) (Human immunodeficiency virus type 1 group M subtype B, UniProt P12497, A559V/I542V/I572V/L498I/L512I/L521F/L551P/M534L/V570A); assay type: biochemical, HIV-1; conditions: read-out: Inhibition constants Ki
T3 construct: using pure recombinant HIV protease and chromogenic peptide substrate
Procedure: as §1

[7] = biological target: T4, HIV PR 5/1 (L10I, I15V, E35D, N37S, R41K, I62V, L63P, A71V, G73S, L90M) (Human immunodeficiency virus type 1 group M subtype B, UniProt P12497, A559V/E523D/G561S/I503V/I550V/L498I/L551P/L578M/N525S/R529K); assay type: biochemical, HIV-1; conditions: read-out: Inhibition constants Ki
T4 construct: using pure recombinant HIV protease and chromogenic peptide substrate
Procedure: as §1

[8] = biological target: T5, HIV PR 15 (M46I, A71V, V82T, I84V) (Human immunodeficiency virus type 1 group M subtype B, UniProt P12497, A559V/I572V/M534I/V570T); assay type: biochemical, HIV-1; conditions: read-out: Inhibition constants Ki
T5 construct: using pure recombinant HIV protease and chromogenic peptide substrate
Procedure: as §1

[9] = tested on: virus strain NL4-3; assay: HIV infectivity inhibition in PM1 cell cultures infected by NL4-3, titration on TZM-cells; assay type: cell-based; conditions: 6,6 to 60 μM, 40 h
Procedure: For testing of compound GB-48, PM1 cell cultures infected by virus strain NL4-3 were split 2 days post infection 1 to 10 with fresh, uninfected cells. To remove unbound virus cells were washed with pre-warmed medium four hours post infection. Cells were subsequently incubated for 40 h with a GB-48 dissolved in DMSO at a final concentration from 0.74 to 60 μM. Control cells were incubated with the same amount of DMSO as the GB-48 treated cells. To harvest the free virus cells were centrifuged at 1500 rpm for 5 min and 10 μl of the supernatants were used for titration. Changes in viral infectivity were analysed by titration of the supernatants on TZM-cells as described above. Two days post infection TZM-cells were lysed and fixed with methanol/aceton. The beta-galactosidase activity of infected cells was visualised by blue stain upon X-Gal addition. All titrations were done in duplicate assays. The viral titer and standard deviation was calculated from three independent titrations. Example of the activity testing is given on FIG. 6. […] At these concentrations drops in viral titer of at least 3 orders of magnitude in virus infectivity were observed.

[10] = wild type HIV-1 protease, pH 4.7, Table 1 values in μM
[11] = wild type HIV-1 protease, pH 4.7, Table 1 values in nM
[12] = wild type, Table 3, read-out: Inhibition constants Ki

## [8,8′-μ-O-(1,2-C2B9H10)(1′,2′-C2B9H10)-3,3′-Co]Na [GB-12]
[1]
  effect on virus infectivity: block the virus infectivity
[2]; [10]
  IC50: 5.2 µM

## [8-(O-P(═O)(OH)2)-(1,2-C2B9H10)(1′,2′-C2B9H11)-3,3′-Co]Na.nH2O [GB-16]
[1]; 10 μM solution, 293 T cells / TZM reporter cells
  HIV infectivity, % of the initial value: ~27%
[1]
  effect on virus infectivity: block the virus infectivity
[3]
  IC50: 13400 nM
  Ki: 3600 nM
[4]
  IC50: 15400 nM
  Ki: 7400 nM
[5]
  IC50: 32900 nM
  Ki: 17200 nM
[2]; inhibitor 0 and 15 μM, pH 4.7, 37° C.
  mechanism of action (inhibition type), Lineweaver-Burke plot: competitive inhibitor
[2]; [10]
  IC50: 6.2 µM
[2]; wild-type HIV-1 PR, Table 2
  IC50: 6.2 µM
[2]; wild-type HIV-1 PR, Table 2, read-out: Ki
  Ki: 16300 nM

## [8-(OH-1,2-C2B9H10)(1′,2′-C2B9H11)-3,3′-Co]Na.nH2O [GB-8]
[1]
  effect on virus infectivity: block the virus infectivity
[2]; [10]
  IC50: 13.5 µM

## [(1,2-C2B9H10)-3,3′-Co(1′,2′-C2B9H11)-8-(OCH2CH2)2NH(CH2CH2CH2CH3)-CH2CH2OCH2CH2-8″-O-(1″,2″-C2B9H10)-3″,3′″-Co(1′″,2′″-C2B9H11)]Na [GB-48]
[6]
  Ki: 24 nM
[7]
  Ki: 4.6 nM
[8]
  Ki: 9 nM
[9]
  drops in viral titer: at least 3 orders of magnitude
  effect on virus infectivity: strongly inhibited virus infectivity
[2]; [11]
  IC50: 0.1 µM
[2]; [12]
  Ki: 2.2 nM

## [(1,2-C2B9H10)-3,3′-Co(1′,2′-C2B9H11)-8-(OCH2CH2)2NH-CH2CH2OCH2CH2-8″-O-(1″,2″-C2B9H10)-3″,3′″-Co(1′″,2′″-C2B9H11)]Na [GB-80]
[6]
  Ki: 13 nM
[7]
  Ki: 40 nM
[8]
  Ki: 22 nM
[2]; [11]
  IC50: 0.14 µM
[2]; [12]
  Ki: 4.9 nM

## [(8-(C6F5O-(CH2)5O)-1,2-C2B9H10)(1′,2′-C2B9H11)-3,3′-Co]Na [GB-54]
[2]; [11]
  IC50: 0.2 µM

## [(8-(C6F5O-(CH2-CH2O)2)-1,2-C2B9H10)(1′,2′-C2B9H11)-3,3′-Co]Na [GB-45]
[2]; [11]
  IC50: 0.16 µM

## [(8-(C6H4(CO)(CO)N-(CH2-CH2O)2)-1,2-C2B9H10)(1′,2′-C2B9H11)-3,3′-Co]Na [GB-64]
[2]; [11]
  IC50: 0.84 µM

## [(8-(C6H4(CO)(SO2)N-(CH2-CH2O)2)-1,2-C2B9H10)(1′,2′-C2B9H11)-3,3′-Co]Na [GB-63]
[2]; [11]
  IC50: 0.13 µM

## [(8-(C6H5)-(CH2-CH2O)2)-1,2-C2B9H10)(1′,2′-C2B9H11)-3,3′-Co]Na [GB-40]
[2]; [10]
  IC50: 1.2 µM

## [(8-(NH2(C6H5CH2)-(CH2-CH2O)2)-1,2-C2B9H10)(1′,2′-C2B9H11)-3,3′-Co] [GB-103]
[2]; [10]
  IC50: 1.4 µM

## [(8-(NH2(CH2CH2CH2CH3)-(CH2-CH2O)2)-1,2-C2B9H10)(1′,2′-C2B9H11)-3,3′-Co] [GB-102]
[2]; [10]
  IC50: 2.2 µM

## [(8-(NH3-(CH2-CH2O)2)-1,2-C2B9H10)(1′,2′-C2B9H11)-3,3′-Co] [GB-69]
[2]; [10]
  IC50: 2.2 µM

## [(8-(calix[4]arene-O-(CH2-CH2O)2)-1,2-C2B9H10)(1′,2′-C2B9H11)-3,3′-Co]Na [GB-72]
[2]; [11]
  IC50: 0.21 µM

## [(8-Cl-1,2-C2B9H10)(8′-Cl-1′,2′-C2B9H10)-3,3′-Co]Na [GB-96]
[2]; [10]
  IC50: 1.08 µM

## [(8-HO-(CH2-CH2O)2-1,2-C2B9H10)(1′,2′-C2B9H11)-3,3′-Co]Na [GB-1]
[2]; [10]
  IC50: 6.1 µM

## [(8-I-1,2-C2B9H10)(8′-I-1′,2′-C2B9H10)-3,3′-Co]Na [GB-97]
[2]; [11]
  IC50: 0.87 µM

## [((1,2-C2B9H10)-3,3′-Co(1′,2′-C2B9H11)-8-(OCH2CH2)2O)3-NH]Na2 [GB-79]
[2]; [11]
  IC50: 0.13 µM

## [(C2B9H10)2-3-Fe]Na.4H2O [GB-23]
[2]; [11]
  IC50: 0.55 µM
